Calls of active or inactive are those of the source. No cut-off for these calls is given here.
Key:
[1] = target: T1, Protein cereblon/Heat shock protein HSP 90-alpha/Heat shock protein HSP 90-beta (Homo sapiens) (UniProt P07900+P08238+Q96SW2); test: Protac activity at CRBN/Hsp90 in human SiHa cells assessed as decrease in HER2 protein expression level at 0.05 uM incubated for 10 hrs by Western blot analysis; assay type: cell-based
SiHa [2] = test: Antiproliferative activity against human SiHa cells assessed as reduction in cell viability incubated for 72 hrs by CCK-8 assay; assay type: functional, cell-based
[3] = target: T1, Protein cereblon/Heat shock protein HSP 90-alpha/Heat shock protein HSP 90-beta (Homo sapiens); test: Protac activity at CRBN/Hsp90 in human SiHa cells assessed as induction of Hsp90 degradation (causing hook effect) at > 0.075 uM incubated for 10 hrs by Western blot analysis; assay type: cell-based
[4] = target: T1, Protein cereblon/Heat shock protein HSP 90-alpha/Heat shock protein HSP 90-beta (Homo sapiens); test: Protac activity at CRBN/Hsp90 in human SiHa cells assessed as induction of Hsp90 degradation at 0.05 uM incubated for 2 hrs in presence of bortezomib by Western blot analysis; assay type: cell-based
[5] = target: T1, Protein cereblon/Heat shock protein HSP 90-alpha/Heat shock protein HSP 90-beta (Homo sapiens); test: Protac activity at CRBN/Hsp90 in human SiHa cells assessed as induction of Hsp90 degradation at 0.05 uM incubated for 2 hrs in presence of SNX-5422 by Western blot analysis; assay type: cell-based
SiHa [6] = test: Inhibition of cell migration in human SiHa cells at 0.05 uM measured for 24 to 48 hrs by microscope based wound healing assay; assay type: functional; conditions: time 24-48 hrs
SiHa [7] = test: Inhibition of cell migration in human SiHa cells at 0.5 uM measured after 48 hrs by microscope based wound healing assay relative to control; assay type: functional
SiHa [8] = test: Induction of apoptosis in human SiHa cells assessed as increase in apoptotic cells incubated after 48 hrs by annexin V-FITC/PI staining based flow cytometry; assay type: functional, cell-based; conditions: dose 0.05-10 µM
SiHa [9] = test: Induction of apoptosis in human SiHa cells assessed as necrotic cells at 10 uM incubated after 48 hrs by annexin V-FITC/PI staining based flow cytometry (reference value: 0.08 %); assay type: functional
SiHa [10] = test: Induction of apoptosis in human SiHa cells assessed as early apoptotic cells at 1 uM incubated after 48 hrs by annexin V-FITC/PI staining based flow cytometry (reference value: 2.05 %); assay type: functional
SiHa [11] = test: Induction of apoptosis in human SiHa cells assessed as viable cells at 0.05 uM incubated after 48 hrs by annexin V-FITC/PI staining based flow cytometry (reference value: 90.4 %); assay type: functional; conditions: read-out: Activity
SiHa [12] = test: Induction of apoptosis in human SiHa cells assessed as early apoptotic cells at 0.05 uM incubated after 48 hrs by annexin V-FITC/PI staining based flow cytometry (reference value: 2.05 %); assay type: functional
SiHa [13] = test: Induction of apoptosis in human SiHa cells assessed as late apoptotic cells at 0.05 uM incubated after 48 hrs by annexin V-FITC/PI staining based flow cytometry (reference value: 6.93 %); assay type: functional
SiHa [14] = test: Induction of apoptosis in human SiHa cells assessed as necrotic cells at 0.05 uM incubated after 48 hrs by annexin V-FITC/PI staining based flow cytometry (reference value: 0.08 %); assay type: functional
SiHa [15] = test: Induction of cell cycle arrest in human SiHa cells assessed as increase in accumulation of cells at G2/M pahse incubated after 48 hrs by PI staining based flow cytometry; assay type: functional; conditions: dose 0.05-10 µM
SiHa [16] = test: Induction of cell cycle arrest in human SiHa cells assessed as accumulation of cells at S pahse at 10 uM incubated after 48 hrs by PI staining based flow cytometry (reference value: 8.51 %); assay type: functional
SiHa [17] = test: Induction of cell cycle arrest in human SiHa cells assessed as accumulation of cells at G1 pahse at 1 uM incubated after 48 hrs by PI staining based flow cytometry (reference value: 83.90 %); assay type: functional
SiHa [18] = test: Induction of cell cycle arrest in human SiHa cells assessed as accumulation of cells at G2/M pahse at 1 uM incubated after 48 hrs by PI staining based flow cytometry (reference value: 7.37 %); assay type: functional
HeLa = test: Antiproliferative activity against human HeLa cells assessed as reduction in cell viability incubated for 72 hrs by CCK-8 assay; assay type: functional, cell-based
C-33-A = test: Antiproliferative activity against human C-33-A cells assessed as reduction in cell viability incubated for 72 hrs by CCK-8 assay; assay type: functional, cell-based
SiHa [19] = test: Synergistic antiproliferative activity against human SiHa cells assessed as combination index at 0.05 uM incubated for 72 hrs in presence of 3.16 uM cisplatin by CCK-8 assay; assay type: functional
SiHa [20] = test: Synergistic antiproliferative activity against human SiHa cells assessed as combination index at 0.05 uM incubated for 72 hrs in presence of 1 uM cisplatin by CCK-8 assay; assay type: functional
SiHa [21] = test: Synergistic antiproliferative activity against human SiHa cells assessed as combination index at 0.1 uM incubated for 72 hrs in presence of 3.16 uM cisplatin by CCK-8 assay; assay type: functional
SiHa [22] = test: Synergistic antiproliferative activity against human SiHa cells assessed as combination index at 0.5 uM incubated for 72 hrs in presence of 1 uM cisplatin by CCK-8 assay; assay type: functional
SiHa [23] = test: Synergistic antiproliferative activity against human SiHa cells assessed as combination index at 0.5 uM incubated for 72 hrs in presence of 0.32 uM cisplatin by CCK-8 assay; assay type: functional
SiHa [24] = test: Synergistic antiproliferative activity against human SiHa cells assessed as combination index at 0.75 uM incubated for 72 hrs in presence of 0.32 uM cisplatin by CCK-8 assay; assay type: functional
SiHa [25] = test: Synergistic antiproliferative activity against human SiHa cells assessed as combination index at 1 uM incubated for 72 hrs in presence of 3.16 uM cisplatin by CCK-8 assay; assay type: functional
SiHa [26] = test: Synergistic antiproliferative activity against human SiHa cells assessed as combination index at 1 uM incubated for 72 hrs in presence of 0.32 uM cisplatin by CCK-8 assay; assay type: functional
SiHa [27] = test: Synergistic antiproliferative activity against human SiHa cells assessed as combination index at 5 uM incubated for 72 hrs in presence of 10 uM cisplatin by CCK-8 assay; assay type: functional
SiHa [28] = test: Synergistic antiproliferative activity against human SiHa cells assessed as combination index at 5 uM incubated for 72 hrs in presence of 3.16 uM cisplatin by CCK-8 assay; assay type: functional
SiHa [29] = test: Synergistic antiproliferative activity against human SiHa cells assessed as combination index at 5 uM incubated for 72 hrs in presence of 0.1 uM cisplatin by CCK-8 assay; assay type: functional
SiHa [30] = test: Synergistic antiproliferative activity against human SiHa cells assessed as combination index at 10 uM incubated for 72 hrs in presence of 31.62 uM cisplatin by CCK-8 assay; assay type: functional
SiHa [31] = test: Synergistic antiproliferative activity against human SiHa cells assessed as combination index at 10 uM incubated for 72 hrs in presence of 0.01 uM cisplatin by CCK-8 assay; assay type: functional
[32] = Toxicity in BALB/c nude mouse xenografted with human SiHa cells assessed as body weight weight loss at 2 mg/kg, ip co-treated with cisplatin separately for every two days; assay type: organism-based; conditions: in vivo
[33] = target: T1, Protein cereblon/Heat shock protein HSP 90-alpha/Heat shock protein HSP 90-beta (Homo sapiens); test: Protac activity at CRBN/Hsp90 in human SiHa cells assessed as decrease in mTOR protein expression level at 0.01 to 1 uM incubated for 10 hrs by Western blot analysis; assay type: cell-based; conditions: dose 0.01-1 µM

Structure (SMILES): CC1(C)CC(=O)c2c(C(F)(F)F)nn(-c3ccc(C(N)=O)c(N[C@H]4CC[C@H](OC(=O)CNC(=O)CCCCCCCNc5cccc6c5CN(C5CCC(=O)NC5=O)C6=O)CC4)c3)c2C1 (stereo not given in full)
- Activity [1]: Active
- IC50 (SiHa [2]): 50 nM
- Activity [3]: inactive
- Activity [4]: inactive
- Activity [5]: inactive
- inhibition (SiHa [6]): Active
- inhibition at 0.5 µM (SiHa [7]): ~100%
- Activity (SiHa [8]): Dose-Dependent Effect
- Activity (SiHa [9]): 0.27%
- Activity (SiHa [10]): 16.5%
- viability at 0.05 µM (SiHa [11]): 90.1%
- Activity (SiHa [12]): 2.44%
- Activity (SiHa [13]): 7.4%
- Activity (SiHa [14]): 0.1%
- Activity (SiHa [15]): Dose-Dependent Effect
- Activity (SiHa [16]): 13.6%
- Activity (SiHa [17]): 59.32%
- Activity (SiHa [18]): 27.12%
- IC50 (HeLa): 80 nM
- IC50 (C-33-A): 70 nM
- CI (SiHa [19]): 1.01
- CI (SiHa [20]): 0.74
- CI (SiHa [21]): 1.04
- CI (SiHa [22]): 0.13
- CI (SiHa [23]): 0.12
- CI (SiHa [24]): 0.17
- CI (SiHa [25]): 0.18
- CI (SiHa [26]): 0.2
- CI (SiHa [27]): 0.51
- CI (SiHa [28]): 0.65
- CI (SiHa [29]): 1.01
- CI (SiHa [30]): 0.97
- CI (SiHa [31]): 2.19
- Activity [32]: Non-Toxic
- Activity [33]: inactive
